The experiment relates to P388 leukemia ip, CD2F1 mice, survival T/C. The experiment is described as follows: NCI In Vivo Anticancer Drug Screen. Data for tumor model P388 Leukemia (intraperitoneal) in CD2F1 (CDF1) mice. The settings on record: endpoint: median survival time, higher = longer survival. A digest of the protocol: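 Mice carrying the transplanted tumor received test compound or vehicle. Survival was recorded in each group, and the value is the treated-group measurement divided by that of the vehicle-treated control group.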

[1] abbreviates: dose: 50.0 mg/kg/injection, schedule: Q01DX005 (ip), vehicle: saline with Tween-80.
[2] abbreviates: dose: 100.0 mg/kg/injection, schedule: Q01DX005 (ip), vehicle: saline with Tween-80.
Where [3] appears, read: dose: 200.0 mg/kg/injection, schedule: Q01DX005 (ip), vehicle: saline with Tween-80.
Where [4] appears, read: dose: 50.0 mg/kg/injection, schedule: Q01DX005 (ip), vehicle: Klucel (hydroxypropylcellulose) (HPC).
Where [5] appears, read: dose: 100.0 mg/kg/injection, schedule: Q01DX005 (ip), vehicle: Klucel (hydroxypropylcellulose) (HPC).
The mark [6] stands for this setting: dose: 200.0 mg/kg/injection, schedule: Q01DX005 (ip), vehicle: Klucel (hydroxypropylcellulose) (HPC).
The mark [7] stands for this setting: dose: 12.5 mg/kg/injection, schedule: Q01DX005 (ip), vehicle: saline with Tween-80.
[8] abbreviates: dose: 25.0 mg/kg/injection, schedule: Q01DX005 (ip), vehicle: saline with Tween-80.
Setting [9] is: dose: 12.5 mg/kg/injection, schedule: Q01DX009 (ip), vehicle: saline.
[10] abbreviates: dose: 25.0 mg/kg/injection, schedule: Q01DX009 (ip), vehicle: saline.

Several values for one entry are separate records, joined by “and”; a condition that tells them apart may be missing. Identical values can stand only once. Inconclusive results and toxic doses are left out. Square brackets hold non-standard residues; d marks the D form. Peptide text beside a SMILES is read from it. * marks the point of attachment. ξ: configuration not given here. Cbz = O=C(OCc1ccccc1)*; ξP = O=C(O)C1CCCN1

`COC(=O)N1CCc2c([nH]oc2=O)C1`: the T/C runs as follows: (dose: 50.0 mg/kg/injection, schedule: Q01DX009 (ip), vehicle: saline) 90 % of control; (dose: 100.0 mg/kg/injection, schedule: Q01DX009 (ip), vehicle: saline) 88 % of control; (dose: 200.0 mg/kg/injection, schedule: Q01DX009 (ip), vehicle: saline) 89 % of control.

Consider `C/C=C1/CN2CCC34c5ccccc5N(C)C23C(O)CC1C4(CO)C(=O)OC` (centres undefined), for which the T/C is, setting by setting: (dose: 13.75 mg/kg/injection, schedule: Q01DX005 (ip), vehicle: saline + Tween-80 + alcohol) 106 % of control; (dose: 27.5 mg/kg/injection, schedule: Q01DX005 (ip), vehicle: saline + Tween-80 + alcohol) 102 % of control; (dose: 55.0 mg/kg/injection, schedule: Q01DX005 (ip), vehicle: saline + Tween-80 + alcohol) 110 % of control; (dose: 110.0 mg/kg/injection, schedule: Q01DX005 (ip), vehicle: saline + Tween-80 + alcohol) 100 % of control.

`CC(=O)C1=C([Si](C)(C)C)N=NC1(C)C`: the T/C is, setting by setting: under setting [1], 111 % of control; under setting [2], 109 % of control; under setting [3], 102 % of control.

With `Cc1cc(OC(=O)Nc2ccc(Cl)c([N+](=O)[O-])c2)c(Cl)cc1Br`, the T/C reads like this: (dose: 50.0 mg/kg/injection, schedule: Q01DX009 (ip), vehicle: saline + alcohol) 100 % of control; (dose: 100.0 mg/kg/injection, schedule: Q01DX009 (ip), vehicle: saline + alcohol) 105 % of control; (dose: 200.0 mg/kg/injection, schedule: Q01DX009 (ip), vehicle: saline + alcohol) 88 % of control.

As for `COc1ccc(CC(C#N)c2ccc(OC)cc2)cc1` (centres undefined), the T/C (dose: 50.0 mg/kg/injection, schedule: Q01DX009 (ip), vehicle: Klucel (hydroxypropylcellulose) (HPC)) was 111 % of control and 96 % of control; the T/C (dose: 100.0 mg/kg/injection, schedule: Q01DX009 (ip), vehicle: Klucel (hydroxypropylcellulose) (HPC)) was 100 % of control and 96 % of control; the T/C (dose: 200.0 mg/kg/injection, schedule: Q01DX009 (ip), vehicle: Klucel (hydroxypropylcellulose) (HPC)) is 99 % of control and 93 % of control.

Regarding `Cc1c2cnccc2c(C)c2c1c1ccccc1n2CC1CO1` (centres undefined), the T/C was 155 % of control (dose: 6.25 mg/kg/injection, schedule: Q01DX009 (ip), vehicle: saline with Tween-80); 111 % of control (dose: 8.0 mg/kg/injection, schedule: Q01DX009 (ip), vehicle: Klucel (hydroxypropylcellulose) (HPC)); 158 % of control (dose: 11.0 mg/kg/injection, schedule: Q01DX009 (ip), vehicle: saline with Tween-80); 152 % of control (dose: 12.5 mg/kg/injection, schedule: Q01DX009 (ip), vehicle: saline with Tween-80); 122 % of control (dose: 16.0 mg/kg/injection, schedule: Q04DX003 (ip), vehicle: Klucel (hydroxypropylcellulose) (HPC)); 171 % of control (dose: 16.5 mg/kg/injection, schedule: Q01DX009 (ip), vehicle: saline with Tween-80). In addition, the T/C by setting is: (dose: 25.0 mg/kg/injection, schedule: Q01DX009 (ip), vehicle: saline with Tween-80) 160 % of control and 168 % of control; (dose: 50.0 mg/kg/injection, schedule: Q01DX009 (ip), vehicle: saline with Tween-80) 88 % of control; (dose: 128.0 mg/kg/injection, schedule: Q04DX003 (ip), vehicle: Klucel (hydroxypropylcellulose) (HPC)) 159 % of control.

Regarding `COC(=O)c1ccc(Nc2cn[nH]n2)cc1`, the T/C runs as follows: under setting [4], 101 % of control; under setting [5], 100 % of control; under setting [6], 98 % of control.

For `Cc1nn(-c2ccccc2)nc1CCl`, the T/C is, setting by setting: under setting [4], 101 % of control; under setting [5], 99 % of control; under setting [6], 95 % of control.

Take `COCCCN1CNC(=S)NC1`: the T/C was 101 % of control under setting [1], 100 % of control under setting [2] and 101 % of control under setting [3].

In the case of `Cc1cc2nc(CC(=O)c3cccnc3)c(CC(=O)c3cccnc3)nc2cc1C`, the T/C was 90 % of control (dose: 6.25 mg/kg/injection, schedule: Q01DX005 (ip), vehicle: saline with Tween-80); 90 % of control under setting [7]; 90 % of control under setting [8]; 91 % of control under setting [2].

For the molecule `CN=c1s[se]c2ccccc12`, the T/C was 102 % of control (dose: 12.5 mg/kg/injection, schedule: Q01DX009 (ip), vehicle: Klucel (hydroxypropylcellulose) (HPC)) and 94 % of control (dose: 25.0 mg/kg/injection, schedule: Q01DX009 (ip), vehicle: Klucel (hydroxypropylcellulose) (HPC)).

As to `[Cl][Sb]([Cl])([Cl])([c]1ccccc1)[c]1ccccc1`, the T/C was 101 % of control (dose: 6.25 mg/kg/injection, schedule: Q01DX009 (ip), vehicle: saline); 98 % of control under setting [9]; 91 % of control under setting [10].

Consider `C1CCN2CC3CC(CN4CCCC[C@@H]34)[C@@H]2C1`, for which the T/C (dose: 25.0 mg/kg/injection, schedule: Q01DX005 (ip), vehicle: Klucel (hydroxypropylcellulose) (HPC)) was 100 % of control.

On to `O=C1OCC2C(=O)OCC12` (centres undefined), for which the T/C (dose: 4.0 mg/kg/injection, schedule: Q01DX009 (ip), vehicle: saline with Tween-80) was 113 % of control and 87 % of control; the T/C (dose: 8.0 mg/kg/injection, schedule: Q01DX009 (ip), vehicle: saline with Tween-80) was 108 % of control and 109 % of control and 96 % of control; the T/C (dose: 16.0 mg/kg/injection, schedule: Q01DX009 (ip), vehicle: saline with Tween-80) was 100 % of control and 109 % of control and 118 % of control; the T/C (dose: 32.0 mg/kg/injection, schedule: Q01DX009 (ip), vehicle: saline with Tween-80) is 104 % of control and 124 % of control and 95 % of control; the T/C (dose: 50.0 mg/kg/injection, schedule: Q04DX003 (ip), vehicle: saline with Tween-80) is 99 % of control; the T/C (dose: 64.0 mg/kg/injection, schedule: Q01DX009 (ip), vehicle: saline with Tween-80) is 100 % of control and 109 % of control and 124 % of control. For the same molecule, the T/C was 102 % of control (dose: 100.0 mg/kg/injection, schedule: Q04DX003 (ip), vehicle: saline with Tween-80); 113 % of control (dose: 128.0 mg/kg/injection, schedule: Q01DX009 (ip), vehicle: saline with Tween-80); 105 % of control (dose: 200.0 mg/kg/injection, schedule: Q04DX003 (ip), vehicle: saline with Tween-80); 99 % of control (dose: 400.0 mg/kg/injection, schedule: Q04DX003 (ip), vehicle: saline with Tween-80).

Turning to `CC(=O)C1C(=O)C(=O)N(c2ccccc2[N+](=O)[O-])C1=O` (centres undefined), the T/C runs as follows: under setting [7], 101 % of control; under setting [8], 107 % of control; under setting [1], 100 % of control and 113 % of control.

For `O=C(O)CNC(=O)C1CCCN1C(=O)OCc1ccccc1` (centres undefined) (Cbz-[ξP]-Gly-OH), the T/C runs as follows: under setting [1], 100 % of control; under setting [2], 91 % of control; under setting [3], 91 % of control.

For `CC(=O)OC12CC[N+]3(C)CCCCC3C1=Nc1ccccc12` (centres undefined), the T/C runs as follows: under setting [9], 110 % of control; under setting [10], 99 % of control.

On to `COC(=O)Nc1nc2ccccc2[nH]1`, for which the T/C runs as follows: (dose: 20.0 mg/kg/injection, schedule: Q04DX003 (ip), vehicle: other) 101 % of control; (dose: 20.0 mg/kg/injection, schedule: Q04DX003 (oral), vehicle: other) 100 % of control; (dose: 40.0 mg/kg/injection, schedule: Q04DX003 (ip), vehicle: other) 100 % of control; (dose: 40.0 mg/kg/injection, schedule: Q04DX003 (oral), vehicle: other) 101 % of control; (dose: 80.0 mg/kg/injection, schedule: Q04DX003 (ip), vehicle: other) 101 % of control; (dose: 80.0 mg/kg/injection, schedule: Q04DX003 (oral), vehicle: other) 101 % of control. For the same molecule, the T/C (dose: 160.0 mg/kg/injection, schedule: Q04DX003 (ip), vehicle: other) was 107 % of control; the T/C (dose: 160.0 mg/kg/injection, schedule: Q04DX003 (oral), vehicle: other) was 105 % of control; the T/C (dose: 320.0 mg/kg/injection, schedule: Q04DX003 (ip), vehicle: other) was 102 % of control; the T/C (dose: 320.0 mg/kg/injection, schedule: Q04DX003 (oral), vehicle: other) is 100 % of control; the T/C (dose: 640.0 mg/kg/injection, schedule: Q04DX003 (ip), vehicle: other) was 111 % of control; the T/C (dose: 640.0 mg/kg/injection, schedule: Q04DX003 (oral), vehicle: other) was 102 % of control.

The record behind these values is PubChem BioAssay AID330 (DTP/NCI, 2004).
